Reference: patent US20180194762A1 (Pharmacyclics LLC, priority 2017, published 2018)
Read-outs that look alike come from different tables or passages of the source.

Experiments:
Format in all cases: biochemical
Btk = target: T1, Btk (Homo sapiens, UniProt Q06187); assay: Btk in vitro inhibitory activity (one of Method A TR-FRET, Method B electrophoretic mobility shift, Method C radiometric filter binding)
T1 construct: purified from insect cells as a full-length construct containing a N-terminal 6X-His tag; His6 (N); made in house; host or cells: insect cells (Method C)
T1 sequence (Q06187 whole entry): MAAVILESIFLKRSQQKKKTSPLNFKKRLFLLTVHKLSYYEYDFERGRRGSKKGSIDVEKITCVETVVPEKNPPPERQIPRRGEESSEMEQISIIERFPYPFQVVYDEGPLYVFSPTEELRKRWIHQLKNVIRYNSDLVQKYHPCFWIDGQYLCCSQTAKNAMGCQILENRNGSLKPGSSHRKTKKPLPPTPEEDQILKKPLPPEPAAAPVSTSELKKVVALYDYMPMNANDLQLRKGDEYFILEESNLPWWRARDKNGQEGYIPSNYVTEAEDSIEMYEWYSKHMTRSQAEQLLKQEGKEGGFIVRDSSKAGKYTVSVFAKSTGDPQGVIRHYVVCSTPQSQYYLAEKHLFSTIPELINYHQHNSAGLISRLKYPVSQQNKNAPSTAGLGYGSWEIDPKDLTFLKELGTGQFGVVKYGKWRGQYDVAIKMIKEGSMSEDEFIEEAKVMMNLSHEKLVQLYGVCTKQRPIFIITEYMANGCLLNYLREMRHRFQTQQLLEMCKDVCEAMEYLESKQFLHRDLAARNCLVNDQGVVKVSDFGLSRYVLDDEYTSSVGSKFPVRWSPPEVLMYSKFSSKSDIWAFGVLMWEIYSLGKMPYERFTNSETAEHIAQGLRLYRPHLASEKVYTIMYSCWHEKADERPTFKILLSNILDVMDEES
Procedure, shortened: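 Method A: TR-FRET with 0.5 nM Btk at [ATP]=Km, EDTA-quenched, 665/615 nm ratio; Ki(app) converted to IC50. Method B: 1 nM full-length His6 human BTK, 1 μM FAM peptide, pH 7.5, mobility-shift product/sum ratio, 12-point 4-parameter fit. Method C: radiometric filter binding, 8 nM His-tagged BTK, 0.2 mg/mL poly-Glu-Tyr.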

TEC = target: T2, TEC (Homo sapiens, UniProt P42680); assay: Inhibition of a panel of kinases (in vitro HotSpot kinase assay, 33P-ATP, 1 μM ATP); details: for IC50: HotSpot kinase assay, 1 μM ATP; for TEC/Btk: ratio of TEC IC50 to Btk IC50 (selectivity)
T2 sequence (P42680 1-631): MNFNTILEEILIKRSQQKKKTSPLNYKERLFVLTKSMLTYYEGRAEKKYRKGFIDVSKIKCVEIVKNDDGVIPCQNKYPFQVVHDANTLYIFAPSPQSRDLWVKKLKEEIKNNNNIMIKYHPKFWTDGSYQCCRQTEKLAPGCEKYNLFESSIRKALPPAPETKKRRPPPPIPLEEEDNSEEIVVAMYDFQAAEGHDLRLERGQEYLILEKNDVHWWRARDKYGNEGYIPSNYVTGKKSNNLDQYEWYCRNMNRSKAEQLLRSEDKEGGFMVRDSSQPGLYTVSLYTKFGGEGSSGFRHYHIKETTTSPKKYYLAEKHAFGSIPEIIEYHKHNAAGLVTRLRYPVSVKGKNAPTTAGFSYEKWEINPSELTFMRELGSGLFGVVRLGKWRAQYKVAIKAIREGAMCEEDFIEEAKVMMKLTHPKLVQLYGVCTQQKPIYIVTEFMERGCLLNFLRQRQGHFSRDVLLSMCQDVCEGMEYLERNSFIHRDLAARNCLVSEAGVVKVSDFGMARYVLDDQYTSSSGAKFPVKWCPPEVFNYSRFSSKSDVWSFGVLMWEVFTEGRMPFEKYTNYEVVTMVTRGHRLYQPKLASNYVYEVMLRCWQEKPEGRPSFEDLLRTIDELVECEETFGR
Procedure, shortened: (§1)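 Degree of kinase inhibition is determined in vitro using isolated enzymes, a matched substrate and radiolabelled ATP (1 μM).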

panel of kinases = target: T3, panel of kinases (Homo sapiens, UniProt P51813); assay: Inhibition of a panel of kinases (in vitro HotSpot kinase assay, 33P-ATP, 1 μM ATP), other kinases; details: BMX wild-type, read-out: BMX-WT IC50
T3 sequence (P51813 1-675): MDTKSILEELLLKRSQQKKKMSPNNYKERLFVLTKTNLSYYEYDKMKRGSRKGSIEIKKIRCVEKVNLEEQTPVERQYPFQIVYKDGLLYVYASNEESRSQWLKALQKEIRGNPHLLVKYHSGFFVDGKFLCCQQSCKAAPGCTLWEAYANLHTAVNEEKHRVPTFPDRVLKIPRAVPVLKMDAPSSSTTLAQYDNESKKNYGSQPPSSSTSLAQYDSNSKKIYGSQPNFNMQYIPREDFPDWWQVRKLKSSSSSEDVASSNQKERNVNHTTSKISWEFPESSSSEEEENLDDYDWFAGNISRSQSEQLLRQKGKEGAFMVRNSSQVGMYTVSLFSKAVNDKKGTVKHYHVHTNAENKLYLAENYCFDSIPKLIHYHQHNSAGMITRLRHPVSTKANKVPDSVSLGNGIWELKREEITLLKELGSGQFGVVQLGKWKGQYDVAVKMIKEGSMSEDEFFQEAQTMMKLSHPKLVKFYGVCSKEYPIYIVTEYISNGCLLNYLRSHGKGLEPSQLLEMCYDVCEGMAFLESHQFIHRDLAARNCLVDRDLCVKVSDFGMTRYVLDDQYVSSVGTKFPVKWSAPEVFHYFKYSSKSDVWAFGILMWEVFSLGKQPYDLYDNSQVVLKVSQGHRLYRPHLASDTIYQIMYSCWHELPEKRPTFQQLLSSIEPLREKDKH
Procedure, shortened: as §1

[1] = wild-type Btk, read-out: Btk-WT IC50
[2] = method is one of A, B or C, not stated which, read-out: IC50 values against Btk

Cn1c(C(=O)NCc2ccc(-c3ccnc4[nH]nc(N[C@@H]5CCNC5)c34)cc2F)cc2c1CC(C)(C)C2 [Example 157, N-{[2-fluoro-4-(3-{[(3R)-pyrrolidin-3-yl]amino}-1H-pyrazolo[3,4-b]pyridin-4-yl)phenyl]methyl}-1,5,5-trimethyl-1H,4H,5H,6H-cyclopenta[b]pyrrole-2-carboxamide]
IC50 (Btk; [1]): > 10 µM
IC50 (TEC): > 10 µM
IC50 (panel of kinases): > 10 µM

C=CC(=O)N1CC[C@@H](Nc2n[nH]c3nccc(-c4ccc(CNC(=O)c5cc6c(n5C)CC(C)(C)C6)c(F)c4)c23)C1 [Example 158, N-{[2-fluoro-4-(3-{[(3R)-1-(prop-2-enoyl)pyrrolidin-3-yl]amino}-1H-pyrazolo[3,4-b]pyridin-4-yl)phenyl]methyl}-1,5,5-trimethyl-1H,4H,5H,6H-cyclopenta[b]pyrrole-2-carboxamide]
IC50 (Btk; [2]): < 0.01 µM
IC50 (Btk; [1]): 0.00771 µM
IC50 (TEC): 0.394 µM
TEC/Btk (TEC): 51
IC50 (panel of kinases): 0.17 µM

CC(C)(C)c1noc(C(=O)NCc2ccc(-c3ccnc4[nH]nc(N5CC[C@H](N)C5)c34)cc2F)n1 [Example 159, N-[(4-{3-[(3S)-3-aminopyrrolidin-1-yl]-1H-pyrazolo[3,4-b]pyridin-4-yl}-2-fluorophenyl)methyl]-3-tert-butyl-1,2,4-oxadiazole-5-carboxamide]
IC50 (Btk; [2]): < 0.01 µM
IC50 (Btk; [1]): 0.00145 µM
IC50 (TEC): 0.591 µM
TEC/Btk (TEC): 408
IC50 (panel of kinases): 1.82 µM

C=CC(=O)N1CC[C@@H](Nc2n[nH]c3nccc(-c4cccc(NC(=O)c5noc(C(C)(C)C)n5)c4CO)c23)C1 [Example 160, 5-tert-butyl-N-[2-(hydroxymethyl)-3-(3-{[(3R)-1-(prop-2-enoyl)pyrrolidin-3-yl]amino}-1H-pyrazolo[3,4-b]pyridin-4-yl)phenyl]-1,2,4-oxadiazole-3-carboxamide]
IC50 (Btk; [1]): 0.0373 µM
IC50 (TEC): 0.922 µM
TEC/Btk (TEC): 25
IC50 (panel of kinases): 0.444 µM

C=CC(=O)N1CC[C@@H](Nc2n[nH]c3nccc(-c4cccc(NC(=O)c5ccc(C(C)(C)C)cc5)c4CO)c23)C1 [Example 161, 4-tert-butyl-N-[2-(hydroxymethyl)-3-(3-{[(3R)-1-(prop-2-enoyl)pyrrolidin-3-yl]amino}-1H-pyrazolo[3,4-b]pyridin-4-yl)phenyl]benzamide]
IC50 (Btk; [2]): < 0.01 µM
IC50 (Btk; [1]): 0.00057 µM
IC50 (TEC): 0.318 µM
TEC/Btk (TEC): 558
IC50 (panel of kinases): 0.275 µM

CC(C)(C)c1noc(C(=O)NCc2ccc(-c3ccnc4[nH]nc(N[C@H]5CCNC5)c34)cc2F)n1 [Example 162, 3-tert-butyl-N-{[2-fluoro-4-(3-{[(3S)-pyrrolidin-3-yl]amino}-1H-pyraozlo[3,4-b]pyridin-4-yl)phenyl]methyl}-1,2,4-oxadiazole-5-carboxamide]
IC50 (Btk; [2]): < 0.01 µM
IC50 (Btk; [1]): 0.0045 µM
IC50 (TEC): 6.26 µM
TEC/Btk (TEC): 1391
IC50 (panel of kinases): 6.05 µM

CC(C)N1CC[C@H](Nc2n[nH]c3nccc(-c4ccc(CNC(=O)c5nc(C(C)(C)C)no5)c(F)c4)c23)C1 [Example 163, 3-tert-butyl-N-{[2-fluoro-4-(3-{[(3S)-1-(propan-2-yl)pyrrolidin-3-yl]amino}-1H-pyrazolo[3,4-b]pyridin-4-yl)phenyl]methyl}-1,2,4-oxadiazole-5-carboxamide]
IC50 (Btk; [2]): < 0.01 µM
IC50 (Btk; [1]): 0.00478 µM
IC50 (TEC): 9.45 µM
TEC/Btk (TEC): 1977
IC50 (panel of kinases): > 10 µM

CC(=O)N1CC[C@H](Nc2n[nH]c3nccc(-c4ccc(CNC(=O)c5nc(C(C)(C)C)no5)c(F)c4)c23)C1 [Example 164, N-{[4-(3-{[(3S)-1-acetylpyrrolidin-3-yl]amino}-1H-pyrazolo[3,4-b]pyridin-4-yl)-2-fluorophenyl]methyl}-3-tert-butyl-1,2,4-oxadiazole-5-carboxamide]
IC50 (Btk; [1]): 0.0113 µM
IC50 (TEC): 8.07 µM
TEC/Btk (TEC): 714
IC50 (panel of kinases): 8.34 µM

CC(C)(C)c1nc(C(=O)Nc2cccc(-c3ccnc4[nH]nc(N[C@@H]5CCNC5)c34)c2CO)no1 [Example 165, t-tert-butyl-N-[2-(hydroxymethyl)-3-(3-{[(3R)-pyrrolidin-3-yl]amino}-1H-pyrazolo[3,4-b]pyridin-4-yl)phenyl]-1,2,4-oxadiazole-3-carboxamide]
IC50 (Btk; [1]): > 10 µM
IC50 (TEC): > 10 µM
TEC/Btk (TEC): >100
IC50 (panel of kinases): > 10 µM

CN1CC[C@H](Nc2n[nH]c3nccc(-c4ccc(CNC(=O)c5nc(C(C)(C)C)no5)c(F)c4)c23)C1 [Example 166, 3-tert-butyl-N-{[2-fluoro-4-(3-{[(3S)-1-methylpyrrolidin-3-yl]amino}-1H-pyrazolo[3,4-b]pyridin-4-yl)phenyl]methyl}-1,2,4-oxadiazole-5-carboxamide]
IC50 (Btk; [2]): < 0.01 µM
IC50 (Btk; [1]): 0.00312 µM
IC50 (TEC): > 10 µM
TEC/Btk (TEC): >100
IC50 (panel of kinases): > 10 µM

CC(C)(C)c1noc(C(=O)NCc2ccc(-c3ccnc4[nH]nc(N[C@H]5CCCNC5)c34)cc2F)n1 [Example 167, 3-tert-butyl-N-{[2-fluoro-4-(3-{[(3S)-piperidin-3-yl]amino}-1H-pyrazolo[3,4-b]pyridin-4-yl)phenyl]methyl}-1,2,4-oxadiazole-5-carboxamide]
IC50 (Btk; [1]): 0.0107 µM
IC50 (TEC): > 10 µM
TEC/Btk (TEC): >100
IC50 (panel of kinases): > 10 µM

CC(=O)N1CCC[C@H](Nc2n[nH]c3nccc(-c4ccc(CNC(=O)c5nc(C(C)(C)C)no5)c(F)c4)c23)C1 [Example 168, N-{[4-(3-{[(3S)-1-acetylpiperidin-3-yl]amino}-1H-pyrazolo[3,4-b]pyridin-4-yl)-2-fluorophenyl]methyl}-3-tert-butyl-1,2,4-oxadiazole-5-carboxamide]
IC50 (Btk; [1]): 0.0403 µM
IC50 (TEC): > 10 µM
TEC/Btk (TEC): >100
IC50 (panel of kinases): > 10 µM

C=CC(=O)N1CCC[C@H](Nc2n[nH]c3nccc(-c4ccc(CNC(=O)c5nc(C(C)(C)C)no5)c(F)c4)c23)C1 [Example 169, 3-tert-butyl-N-{[2-fluoro-4-(3-{[(3S)-1-(prop-2-enoyl)piperidin-3-yl]amino}-1H-pyrazolo[3,4-b]pyridin-4-yl)phenyl]methyl}-1,2,4-oxadiazole-5-carboxamide]
IC50 (Btk; [2]): < 0.01 µM
IC50 (Btk; [1]): 0.00372 µM
IC50 (TEC): 1.75 µM
TEC/Btk (TEC): 470
IC50 (panel of kinases): 1.82 µM

CCc1cc(C(=O)NCc2ccc(-c3ccnc4[nH]nc(N[C@@H]5CCCN[C@@H]5C)c34)cc2F)no1 [Example 170, 5-ethyl-N-{[2-fluoro-4-(3-{[(2R,3R)-2-methylpiperidin-3-yl]amino}-1H-pyrazolo[3,4-b]pyridin-4-yl)phenyl]methyl}-1,2-oxazole-3-carboxamide]
IC50 (Btk; [1]): > 10 µM
IC50 (TEC): > 10 µM
IC50 (panel of kinases): > 10 µM

CCc1cc(C(=O)NCc2ccc(-c3ccnc4[nH]nc(N[C@@H]5CCCN(C(=O)N(C)C)[C@@H]5C)c34)cc2F)no1 [Example 171, (2R,3R)-3-{[4-(4-{[(5-ethyl-1,2-oxazol-3-yl)formamido]methyl}-3-fluorophenyl)-1H-pyrazolo[3,4-b]pyridin-3-yl]amino}-N,N,2-trimethylpiperidine-1-carboxamide]
IC50 (Btk; [1]): 0.559 µM
IC50 (TEC): > 10 µM
TEC/Btk (TEC): >100
IC50 (panel of kinases): 7.79 µM

CC(C)c1cc(C(=O)NCc2ccc(-c3ccnc4[nH]nc(N[C@@H]5CCCN[C@@H]5C)c34)cc2F)no1 [Example 172, N-{[2-fluoro-4-(3-{[(2R,3R)-2-methylpiperidin-3-yl]amino}-1H-pyrazolo[3,4-b]pyridin-4-yl)phenyl]methyl}-5-(propan-2-yl)-1,2-oxazole-3-carboxamide]
IC50 (Btk; [1]): 0.436 µM
IC50 (TEC): > 10 µM
TEC/Btk (TEC): >100
IC50 (panel of kinases): > 10 µM
